In one data set the test system is HEK293. Put plainly: Viability of non-cancerous cell line HEK293 exposed to FGFR inhibitor. The class given is cell-based. The following applies: non-cancerous cell line HEK293, data not shown.
Another data set concerns HuH7. Put plainly: Viability of HCC cell lines (HuH7) exposed to FGFR inhibitor. In kind it is cell-based, human.
The next data set has as its system HuH7 cells. Put plainly: AFP production in HuH7 cells after exposure to FGFR inhibitor. The class given is cell-based, human. The following applies: HuH7, 0, 1, 5 and 10 μM (FIG. 15). As to the method:
(§1) Supernatants from the respective FGF19 stimulation and siRNA experiments were subjected to AFP ELISA assay using the DELFIA hAFP kit (Perkin Elmer, Boston, Mass.), performed according to manufacturer's protocol. The readout was converted to concentration (ng/mL) using the standard curve derived from the solutions provided in the kit. AFP production by the cells was subsequently normalized to the number of cells in each well. The cell number was determined by ATP bioluminescence Cell-Titer Glo assay (Promega, Madison, Wis.) using protocol as described by the manufacturer.

In data set [1] the target is T1, FGFR4 (Homo sapiens, UniProt P22455). Put plainly: FGF19 ligand stimulation, AFP ELISA, HuH7. The class given is cell-based. On the set-up: stimulation of FGFR4 in the HCC cell line HuH7 using 50 and 100 ng/ml of the specific ligand FGF19; endogenous in cells; host or cells: HuH7. As to the method:
(§2) HepG2 or HuH7 cells were seeded into 96-well plates and allowed to attach overnight. They were serum-starved for 24 h before addition of heparin. Two hours later, FGF19 (R&D Systems, Minneapolis, Minn., 50-100 ng/mL final concentration) was administered. After 8 hours, aliquots of the supernatant were harvested for AFP ELISA assay as described below. Similar FGF19 stimulations were performed in 10 cm dishes for immunoblot detection of phospho-FRS2α.
as §1
On the technique in general: ELISA stands for enzyme-linked immunosorbent assay.

Data set [2] concerns the target T1, FGFR4. Kind of data set: FGF19 ligand stimulation, AFP ELISA, HepG2. In kind it is cell-based. On the set-up: endogenous in cells. The following applies: HepG2, 50 and 100 ng/ml FGF19 (FIG. 12). The method, then: as §2, §1

T1 sequence (P22455 22-802): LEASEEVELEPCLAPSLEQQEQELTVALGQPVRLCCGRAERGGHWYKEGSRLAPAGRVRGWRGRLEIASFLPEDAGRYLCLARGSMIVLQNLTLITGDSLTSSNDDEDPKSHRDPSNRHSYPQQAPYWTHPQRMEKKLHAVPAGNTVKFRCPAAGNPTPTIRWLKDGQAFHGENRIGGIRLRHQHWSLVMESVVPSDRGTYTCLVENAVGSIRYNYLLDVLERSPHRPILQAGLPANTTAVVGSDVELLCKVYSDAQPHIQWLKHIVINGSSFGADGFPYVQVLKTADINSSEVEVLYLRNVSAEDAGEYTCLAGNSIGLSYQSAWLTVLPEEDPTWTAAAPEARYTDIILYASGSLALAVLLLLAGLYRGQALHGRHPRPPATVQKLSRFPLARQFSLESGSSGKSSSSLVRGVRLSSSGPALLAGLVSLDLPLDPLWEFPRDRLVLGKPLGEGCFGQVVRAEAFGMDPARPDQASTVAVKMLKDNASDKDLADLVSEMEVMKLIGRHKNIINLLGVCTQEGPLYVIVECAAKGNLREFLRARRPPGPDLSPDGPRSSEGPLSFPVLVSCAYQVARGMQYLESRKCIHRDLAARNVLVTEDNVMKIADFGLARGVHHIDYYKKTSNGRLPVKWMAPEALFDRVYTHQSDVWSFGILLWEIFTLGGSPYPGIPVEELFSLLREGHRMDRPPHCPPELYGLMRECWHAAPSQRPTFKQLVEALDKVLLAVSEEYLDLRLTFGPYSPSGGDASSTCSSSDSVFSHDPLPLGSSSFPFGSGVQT

In the data set on HEK293, `CCN(CC)CCCCNc1ncc2cc(-c3cc(OC)cc(OC)c3)c(NC(=O)NC(C)(C)C)nc2n1` [PD173074] gave an LD50 of over 50 µM. Also, the anti-proliferative effect entry in the data set with HuH7 (HCC cell lines vs. non-cancerous cell line HEK293) is listed as “exquisite anti-proliferative effect”. Moreover, in the data set with HuH7 (HuH7 (FIG. 16)), the “anti-proliferative effect (viability)” value is “exquisite anti-proliferative effect”. For the same molecule, the AFP production entry in the data set with HuH7 cells was “blocks AFP production”.
For “FGF19: specific ligand used for stimulation of FGFR4 (R&D Systems)”, the AFP production entry with FGFR4 [1] (HCC cell lines (FIG. 11, FIG. 12)) is “elevated AFP production”; in the data set with FGFR4 [1] (HuH7, 50 and 100 ng/ml FGF19 (FIG. 11)), “elevated AFP production”; with FGFR4 [2], “elevated AFP production”.
